Reference: patent publication US8772347B2, “Use of a pharmaceutical composition for promoting proliferation and/or migration of skin cells, and for improving wound healing in a subject” (Kaohsiung Medical University, priority 2011, dated 2014)

Assays:
collagen = assay: Sirius red collagen staining, human fibroblasts; assay type: cell-based; conditions: for collagen expression level of fibroblasts: FIG. 5(B); for collagen expression level per human fibroblast: FIG. 5(C)
Method: Sirius red collagen staining is performed to analyze the effect on the collagen expression of skin cells treated with 6-DG 6-DG of different concentration is added to a 24-well culture dish cultured with human fibroblasts. Medium in the dish is removed and the fibroblasts are washed with PBS twice. 100 μl Sirius Red is added to each well of the dish and incubated at room temperature for 1 hr. After removing the unstained Sirius Red, the fibroblasts are washed with 100 μl 0.1N HCl for at least five times, and then 100 μl 0.1N NaOH is used to extract the stained Sirius Red. Finally, the OD value of the extracted stained Sirius Red is calculated by 540 nm-wavelength light. As the described in “BACKGROUND OF THE INVENTION,” it is said that PMA, an activator for protein kinase C, phosphorylates JNK and ERK to produce MMP-1, and inhibits TIMP-1. With regard to the effect on the collagen expression of skin cells treated with 6-DG, the human fibroblasts are incubated with 20 ng/ml PMA prior to being incubated with 6-DG.

human fibroblasts [1] = assay: Proliferation of human fibroblasts with or without PMA (FIG. 5(A)); assay type: cell-based
VEGF [2] = assay: ELISA, growth factor expression in conditioned medium of fibroblasts; assay type: cell-based, human; conditions: 24 hr, medium supernatant, mean ± SD
Method: (§1) Skin cells are cultured following the method provided in Exp Dermatol 2011; 20: 242-8. Human skin fibroblasts are derived from Chung-Ho Memorial Hospital, Kaohsiung Medical University, Taiwan, ROC, and incubated in Dulbecco's Modified Eagle Medium including 10% fetal calf serum, 100 μg/ml streptomycin, and 250 ng/ml amphotericin B. Human keratinocytes are isolated from foreskin primary culture and cultured in Keratinocyte-SFM Medium supplemented with Bovine Pituitary Extract and EGF. All of these cells are incubated at 37° C. in a humidified incubator with 5% CO2 atmosphere.
(§2) Enzyme-linked immunoassay (ELISA) is performed to analyze the effect on the growth factor expression of skin cells treated with different 6-DG concentration (dissolved in DMSO). Firstly, 6-DG of different concentration is incubated in a 6-well culture dish with skin cells cultured in a conditioned medium for 24 hr. Supernant of the conditioned medium is collected for analyzing the concentration of TGF-β, VEGF, and PDGF-αβ following the directions provided by DuoSet ELISA development kits (R&D Systems, USA). With regard to whether DMSO has effect on the growth factor expression or not, skin cells treated with DMSO are used as a control.

PDGF-αβ [3] = assay: as above; assay type: cell-based, human; conditions: 24 hr, medium supernatant, mean ± SD
Method: as §1, §2

TGF-β [4] = assay: as above; assay type: cell-based, human; conditions: 24 hr, medium supernatant, mean ± SD
Method: as §1, §2

c-Jun and ERK = assay: Western blotting, human fibroblasts, phosphorylation; assay type: cell-based; conditions: compared with cells only treated with PMA
Method: Signal transduction of skin cells treated with 6-DG is studied. Firstly, 6-DG of different concentration is incubated with 1×10^6 human fibroblasts. After being incubated for 24 hr, the human fibroblasts are washed twice with phosphate-buffered saline (PBS), and then lysed by a lysis buffer containing 50 mM Tris-HCl, pH7.5, 137 mM sodium chloride, 1 mM EDTA, 1% Nonidet P-40, 10% glycerol, 0.1 mM sodium orthovanadate, 10 mM sodium pyrophosphate, 20 mM β-glycerophosphate, 50 mM sodium fluoride, 1 mM phenylmethysulfonyl fluoride, 2 mM leupeptin, and 2 μg/ml aprotinin. A cell extract having the lysed human fibroblasts is separated by a centrifugal force of 10,000 g at 4° C., and supernant of the cell extract is collected for determining protein concentration using Bicinchoninic acid protein assay kit (Pierce, Rockford, Ill., USA). Equal concentration of protein in the supernant is separated by SDS-PAGE, and then blotted to a PVDF membrane (PALL Life Science, Ann Arbor, Mich., USA). After being blocked for 1 hr in phosphate-buffered saline & tween (PBST) containing 5% non-fat milk, primary antibodies are added to the membrane. The membrane is washed with PBST twice, and next secondary antibodies against the primary antibodies are added to the membrane. Finally, signals on the membrane are visualized by enhanced chemiluminescence substrate (PerkinElmer, USA). […]

VEGF [5] = assay: ELISA, growth factor expression in conditioned medium of keratinocytes; assay type: cell-based, human; conditions: 24 hr, medium supernatant, mean ± SD
Method: as §1, §2

PDGF-αβ [6] = assay: as above; assay type: cell-based, human; conditions: 24 hr, medium supernatant, mean ± SD
Method: as §1, §2

TGF-β [7] = assay: as above; assay type: cell-based, human; conditions: 24 hr, medium supernatant, mean ± SD
Method: as §1, §2

human keratinocytes [8] = assay: Migration of skin cells into wound area (scratch assay, TScratch); assay type: cell-based
Method: as §1
(§3) An assay disclosed in Process Biochemistry 2010; 45:1865-72 is performed to analyze the effect on migration of skin cells treated with different 6-DG concentration (dissolved in DMSO). 5×10^5 skin cells are seeded in a 12-well culture dish and grown to complete confluence. Prior to adding 6-DG of different concentration to the dish, a clean […] would area is created on the skin cells. The wound area is photographed using an inverted phase-contrast microscopy (TE2000-U; Nikon, Tokyo, Japan) equipped with NIS-Elements software (Nikon), and the skin cell migration in the wound area is calculated by the free software “TScratch” (www.cse-lab.ethz.ch/software.html). Considering whether DMSO has effect on the skin cell migration or not, skin cells treated with 0.5% DMSO are used as a control.

human fibroblasts [9] = assay: as above; assay type: cell-based
Method: as §1, §3

MMP-1 [10] = assay: Collagen zymography, MMP-1 activity of human fibroblasts; assay type: cell-based
Method: Collagen zymography is performed to analyze the effect on the MMP-1 activity of skin cells treated with 6-DG. After electrophoresis of the foregoing lysed cell extract in SDS-PAGE containing 0.1% collagen, the SDS-PAGE is reacted with 2.5% Triton X-100 to remove SDS and make the protein of the lysed extract folded, and then incubated with a Tris-base buffer containing NaCl, CaCl2, and ZnCl2. Finally, this gel is stained with Coomassie Brilliant Blue R250, and the signal at 52 kDa […] position on the gel is calculated by Gel Pro v4.0 software (Media Cybernetics, Silver Spring, Md., USA).
“BACKGROUND OF THE INVENTION” of the content is said that PMA, an activator for protein kinase C, phosphorylates JNK and ERK to produce MMP-1, and inhibits TIMP-1. For confirming the effect on the MMP-1 activity of skin cells treated with 6-DG, the human fibroblasts are incubated with 20 ng/ml PMA prior to being treated with 6-DG.

TIMP-1 = assay: Western blotting, human fibroblasts; assay type: cell-based
Method: (§4) Signal transduction of skin cells treated with 6-DG is studied. Firstly, 6-DG of different concentration is incubated with 1×10^6 human fibroblasts. After being incubated for 24 hr, the human fibroblasts are washed twice with phosphate-buffered saline (PBS), and then lysed by a lysis buffer containing 50 mM Tris-HCl, pH7.5, 137 mM sodium chloride, 1 mM EDTA, 1% Nonidet P-40, 10% glycerol, 0.1 mM sodium orthovanadate, 10 mM sodium pyrophosphate, 20 mM β-glycerophosphate, 50 mM sodium fluoride, 1 mM phenylmethysulfonyl fluoride, 2 mM leupeptin, and 2 μg/ml aprotinin. A cell extract having the lysed human fibroblasts is separated by a centrifugal force of 10,000 g at 4° C., and supernant of the cell extract is collected for determining protein concentration using Bicinchoninic acid protein assay kit (Pierce, Rockford, Ill., USA). Equal concentration of protein in the supernant is separated by SDS-PAGE, and then blotted to a PVDF membrane (PALL Life Science, Ann Arbor, Mich., USA). After being blocked for 1 hr in phosphate-buffered saline & tween (PBST) containing 5% non-fat milk, primary antibodies are added to the membrane. The membrane is washed with PBST twice, and next secondary antibodies against the primary antibodies are added to the membrane. Finally, signals on the membrane are visualized by enhanced chemiluminescence substrate (PerkinElmer, USA). As the description of “BACKGROUND OF THE INVENTION,” it is said that PMA, an activator for protein kinase C, phosphorylates JNK and ERK to produce MMP-1 and inhibits TIMP-1. For further confirming the effect on signal transduction of skin cells treated with 6-DG, the human fibroblasts are incubated with 20 ng/ml PMA prior to being treated with 6-DG.

MMP-1 [11] = assay: Western blotting, human fibroblasts; assay type: cell-based; conditions: compared with cells only treated with PMA
Method: as §4

human keratinocytes [12] = assay: MTT assay, proliferation of skin cells; assay type: cell-based; conditions: 24 hr, FIG. 2(B)
Method: as §1
(§5) 3-(4,5-cimethylthiazol-2-yl)-2,5-diphenyl tetrazolium bromide assay (MTT assay) is performed to analyze the effect on the proliferation of skin cells treated with different 6-DG concentration (dissolved in DMSO). Firstly, 6-DG of different concentration is seeded in a 96-well culture dish cultured with skin cells and incubated for 24 hr. MIT solution (5 mg/ml, dissolved in PBS) is added into the dish and incubated again at 37° C. for 2 hr. Medium in the dish is removed, 0.05 ml DMSO is added to the dish, and then the dish is shaken in a dark position for 20 min. Finally, the OD value of each well of the dish is calculated by 595 nm-wavelength light (UV-vis, BioTek, USA). Considering whether DMSO has effect on the skin cell proliferation or not, skin cells treated with DMSO are used as a control.

human fibroblasts [13] = assay: MTT assay, proliferation of skin cells; assay type: cell-based; conditions: for proliferation of human fibroblasts compared with control: 24 hr, MTT, FIG. 2(A)
Method: as §1, §5

[14] = 20 ng/ml PMA prior to 6-DG, compared with PMA only
[15] = 6-DG, compared with untreated (control) and PMA only
[16] = skin cells (fibroblasts and keratinocytes), based on the volume of the composition

CCCCCC(=O)/C=C(O)/C=C/c1ccc(O)c(OC)c1 [6-DG, 6-dehydrogingerdione]
collagen expression level of fibroblasts (collagen; [14]): still have up-regulated expression of collagen
collagen expression level per human fibroblast (collagen; [14]): still has up-regulated expression of collagen
collagen expression level of fibroblasts (collagen; [15]): up-regulated expression of collagen
collagen expression level per human fibroblast (collagen; [15]): up-regulated expression of collagen
proliferation of fibroblasts (human fibroblasts [1]; [14]): still have obvious proliferation
proliferation of fibroblasts (human fibroblasts [1]; [15]): obvious proliferation
VEGF (VEGF [2]; 6-DG 2 μM): 432.0 ± 14.6 pg/mL
VEGF (VEGF [2]; 6-DG 10 μM): 294.5 ± 14.6 pg/mL
PDGF-αβ (PDGF-αβ [3]; 6-DG 2 μM): 7.1 ± 0.1 pg/mL
PDGF-αβ (PDGF-αβ [3]; 6-DG 10 μM): 5.3 ± 0.1 pg/mL
TGF-β (TGF-β [4]; 6-DG 2 μM): 984.5 ± 21.6 pg/mL
TGF-β (TGF-β [4]; 6-DG 10 μM): 1003.3 ± 24.0 pg/mL
phosphorylation level of c-Jun and ERK (c-Jun and ERK; 20 ng/ml PMA prior to 6-DG): less phosphorylation level of c-Jun and ERK
phosphorylation level of c-Jun and ERK (c-Jun and ERK; 6-DG): less phosphorylation level of c-Jun and ERK
VEGF (VEGF [5]; 6-DG 2 μM): 344.3 ± 9.5 pg/mL
VEGF (VEGF [5]; 6-DG 10 μM): 292.8 ± 7.3 pg/mL
PDGF-αβ (PDGF-αβ [6]; 6-DG 2 μM): 5.84 ± 0.2 pg/mL
PDGF-αβ (PDGF-αβ [6]; 6-DG 10 μM): 4.55 ± 0.1 pg/mL
TGF-β (TGF-β [7]; 6-DG 2 μM): 822.8 ± 15.3 pg/mL
TGF-β (TGF-β [7]; 6-DG 10 μM): 768.0 ± 9.6 pg/mL
migration of human keratinocytes to the wound area (human keratinocytes [8]; 2 μM 6-DG for 24 hr): more obvious
migration of human keratinocytes to the wound area (human keratinocytes [8]; 10 μM 6-DG, compared with 2 μM): less obvious than that after being treated with 2 μM
migration of human keratinocytes to the wound area compared with control (human keratinocytes [8]; treated with 6-DG, FIGS. 3(C)-3(D)): obviously migrate to the wound area
migration of human fibroblasts to the wound area (human fibroblasts [9]; 2 μM 6-DG for 24 hr): more obvious
migration of human fibroblasts to the wound area (human fibroblasts [9]; 10 μM 6-DG, compared with 2 μM): less obvious than that after being treated with 2 μM
effective concentration for promoting migration of skin cells (human fibroblasts [9]; [16]): 2 to 50 µM
migration of human fibroblasts to the wound area compared with control (human fibroblasts [9]; treated with 6-DG, FIGS. 3(A)-3(B)): obviously migrate to the wound area
activity of MMP-1 (MMP-1 [10]; 20 ng/ml PMA prior to 6-DG, compared with fibroblasts only treated with PMA): lower activity of MMP-1
activity of MMP-1 (MMP-1 [10]; 6-DG, compared with fibroblasts only treated with PMA): lower MMP-1 activity
activity of MMP-1 (MMP-1 [10]; 6-DG, compared with fibroblasts untreated, FIGS. 6(A)-6(B)): no obvious difference
expression of TIMP-1 (TIMP-1; 6-DG 24 hr, compared with fibroblasts untreated): up-regulate the expression of TIMP-1
expression level of TIMP-1 (TIMP-1; 6-DG, compared with cells only treated with PMA): up-regulated expression level of TIMP-1
expression level of MMP-1 (MMP-1 [11]; 20 ng/ml PMA prior to 6-DG): down-regulated expression level of MMP-1
expression level of MMP-1 (MMP-1 [11]; 6-DG): down-regulated expression level of MMP-1
proliferation of human keratinocytes compared with control (human keratinocytes [12]; 2 μM 6-DG): obviously proliferated
proliferation of human keratinocytes compared with control (human keratinocytes [12]; 50 μM 6-DG): obviously proliferated
proliferation of human keratinocytes compared with control (human keratinocytes [12]; 100 μM 6-DG): not obviously proliferated
proliferation of human fibroblasts compared with control (human fibroblasts [13]; 2 μM 6-DG): obviously proliferated
proliferation of human fibroblasts compared with control (human fibroblasts [13]; 50 μM 6-DG): obviously proliferated
proliferation of human fibroblasts compared with control (human fibroblasts [13]; 100 μM 6-DG): not obviously proliferated
effective concentration for promoting skin cell proliferation (human fibroblasts [13]; [16]): 2 to 50 µM
